Here are results for 27 compounds from ChEMBL document CHEMBL1932949, “Novel indoleamine 2,3-dioxygenase-1 inhibitors from a multistep in silico screen” (Bioorg Med Chem, 2012).

Data set [1] concerns the target T1, Indoleamine 2,3-dioxygenase 1 (Homo sapiens, UniProt P14902). Put plainly: Inhibition of His-tagged recombinant human IDO1 expressed in Escherichia coli using tryptophan as substrate by spectrophotometric analysis.
Target sequence in this assay (P14902 whole entry): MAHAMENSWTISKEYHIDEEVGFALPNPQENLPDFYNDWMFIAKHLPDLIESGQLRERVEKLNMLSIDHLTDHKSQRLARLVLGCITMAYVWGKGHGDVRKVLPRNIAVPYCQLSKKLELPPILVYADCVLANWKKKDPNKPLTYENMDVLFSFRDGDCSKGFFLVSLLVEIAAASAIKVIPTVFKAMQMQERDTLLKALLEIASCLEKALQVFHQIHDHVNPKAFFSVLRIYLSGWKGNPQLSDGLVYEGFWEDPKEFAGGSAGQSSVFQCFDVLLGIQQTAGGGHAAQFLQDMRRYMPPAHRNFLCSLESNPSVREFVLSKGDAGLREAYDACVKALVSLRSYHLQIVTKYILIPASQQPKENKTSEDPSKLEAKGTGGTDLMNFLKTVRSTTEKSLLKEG
Data set [2] has as its target T1, Indoleamine 2,3-dioxygenase 1. As to the kind of experiment: Inhibition of His-tagged recombinant human IDO1 expressed in Escherichia coli using tryptophan as substrate at 100 uM by spectrophotometric analysis.
Target sequence in this assay (P14902 whole entry, looked up): as the sequence (P14902 whole entry) above
Data set [3] shares this target. As to conditions: at 200 µM.
Target sequence in this assay (P14902 whole entry, looked up): as the sequence (P14902 whole entry) above
Description: Inhibition of His-tagged recombinant human IDO1 expressed in Escherichia coli using tryptophan as substrate at 200 uM by spectrophotometric analysis
A short description of data set [4]: Dissociation constant, pKa of the compound. The format is physicochemical.
The target of data set [5] is T1, Indoleamine 2,3-dioxygenase 1. As to the kind of experiment: Inhibition of IDO1.
Target sequence in this assay (P14902 whole entry): as above
The target is the same in data set [6]. As to the kind of experiment: Inhibition of His-tagged recombinant human IDO1 expressed in Escherichia coli using tryptophan as substrate by Ehrlich's method.
Target sequence in this assay (P14902 whole entry): as above
For data set [7] the target is unchanged. As to the kind of experiment: Inhibition of His-tagged recombinant human IDO1 expressed in Escherichia coli using tryptophan as substrate by HPLC analysis.
Target sequence in this assay (P14902 whole entry): as above

Consider `Nc1cc2ccccc2cc1C(=O)O`, for which the IC50 in data set [1] came out at 15 µM. For the same compound, the inhibition in data set [2] is 74%.

For the compound `CN1CCN(C(=O)c2nccnc2C(=O)O)CC1`, the inhibition in data set [3] amounted to 0%.

On to `O[C@@H](CNCCNc1nccc(C(F)(F)F)n1)CSc1ccc(F)cc1`, for which the inhibition in data set [3] worked out at 0%.

Compound `S=C1N2CCN=C2SC2=NCCN12` had an inhibition in data set [3] of 0%.

The compound `CSC(=N)N` registered a pKa in data set [4] of 9.83.

As to `c1ccc2c(c1)[nH]c1cnccc12` [NORHARMANE], the IC50 in data set [1] was 90 µM.

For the compound `Nc1cc2ccccc2cc1CO`, the IC50 in data set [1] amounted to 190 µM.

`N/C(CS(=O)(=O)c1ccccc1)=N\O`: the inhibition in data set [3] came out at 0%.

With `N/C(=N\OS(=O)(=O)c1ccc(Cl)cc1)c1ccc(C(F)(F)F)cc1`, the inhibition in data set [3] was found to be 0%.

With `Cc1[nH]ccc2c1[nH]c1cc(=O)ccc12` [HARMOL], in data set [5], the IC50 is 2000 µM.

With `Cc1nnsc1C(=O)O/N=C(/N)COc1ccc(C2SCCS2)cc1`, in data set [6], the IC50 was 50 µM. Besides, the inhibition in data set [3] worked out at 70%.

The compound `CN(C)CCCNc1cccc(Cl)c1C#N` registered an inhibition in data set [3] of 0%.

Regarding `NC(=NOC(=O)c1ccccc1Cl)c1cccc(CS(=O)(=O)c2ccc(Cl)cc2)c1`, in data set [6], the IC50 is 60 µM.

For the compound `COC(=O)c1cc2ccccc2cc1N`, the IC50 in data set [1] amounted to 460 µM.

Compound `CCOC(=O)N1CCN(CC(O)Cn2c(=O)c3c(ncn3C)n(C)c2=O)CC1` (stereo not given) yielded an inhibition in data set [3] of 0%.

In data set [3], `O=c1c2ccccc2nc2ccccn12` registered an inhibition of 0%.

For `N=C(NOC(=O)c1cc2ccccc2oc1=O)c1ccc(Oc2ccc(C(F)(F)F)cc2[N+](=O)[O-])cc1`, the IC50 in data set [6] is 20 µM.

For the compound `N/C(=N/OC(=O)c1cc2ccccc2oc1=O)c1ccc(Oc2ccc(C(F)(F)F)cc2[N+](=O)[O-])cc1`, in data set [3], the inhibition was found to be 70%.

In data set [3], `Sc1nnc2nnc3ccccc3n12` came in with an inhibition of 0%.

`O=c1[nH]nc2n1-c1ccccc1SC2` yielded an inhibition in data set [3] of 0%.

For the compound `Cn1c(S)nnc1-c1ccc(Cl)cc1`, the inhibition in data set [3] amounted to 0%.

For the compound `Cc1cc2nnc(/C(N)=N/O)c(C)n2n1`, in data set [3], the inhibition turned out to be 0%.

Consider `O=c1nc2sccn2c2ncccc12`, for which the inhibition in data set [3] was 0%.

In data set [3], `OC1(c2ccc(Cl)cc2)CCN(Cn2nnc3ccccc32)CC1` displayed an inhibition of 0%.

With `O=C(O)c1cc2ccccc2cc1O`, in data set [1], the IC50 is 1000 µM.

Take `Nc1ccc2c(c1)N1CCN=C1S2`: the IC50 in data set [7] is 50 µM. The inhibition in data set [3] worked out at 70%.

Compound `N/C(=N\OC(=O)c1ccccc1Cl)c1cccc(CS(=O)(=O)c2ccc(Cl)cc2)c1` showed an inhibition in data set [3] of 70%.

Usually IC50 stands for the point on the concentration scale where inhibition reaches its midpoint. As usually defined, the inhibition is the drop in the measured response relative to a control, in per cent. Broadly, the pKa is the pH at which an ionisable group is half protonated. A higher pKa goes with a weaker acid or stronger base.
